Measured values: patent US6203822A, “Gallium-containing compounds for the treatment of infections caused by intracellular pathogens and pathogens causing chronic pulmonary infection” (priority 1996, dated 2001)

How the values were obtained:
[1] = infused in vivo; cited from earlier work
[2] = test system: M. tuberculosis in human macrophages; test: Colony-forming unit assay to assess pathogen death; format: cell-based
Protocol: Example 4 and Example 5 detail exemplary methods used to determine whether the mycobacteria strains were killed by the addition of gallium nitrate. […] The bacteria were resuspended in 7H9 broth (BBL Microbiology Systems) or onto agar plates without gallium nitrate and incubated under conditions known to promote bacterial growth. In Example 4, the growth index for these cultures was assessed after 6 weeks to determine whether bacteria are inhibited or killed. […] In Example 5, M. tuberculosis-infected macrophages cell lysates were plated onto the surface of media able to support M. tuberculosis growth. Colony forming unit assays were counted to assess bacterial death or inhibition.
The growth index assay cannot always clearly distinguish between bacterial survival (without multiplication) and bacterial death. Therefore, colony forming unit assays were also used to assess the bactericidal activity of gallium-containing compounds in these experiments. Lysed monolayers were plated in Middlebrook 7H11 plates and colonies forming on the plates were counted after 14 days. […] In fact, this experiment provided the most graphic illustration of the influence of gallium nitrate on bacterial killing. That is, control-infected monolayers were lysed as a result of bacterial multiplication so that macrophages could no longer be visualized by microscopy. […] Importantly, the results in the colony-forming unit assay resemble the results obtained with the radiometric BACTEC assay.

[3] = test system: Macrophages (MDMs) infected with M. tuberculosis; test: Monolayer density of macrophages (MDMs) infected with M. tuberculosis and treated with gallium nitrate; format: cell-based, human
Protocol: Macrophages were infected with M. tuberculosis at a ratio of 1:5 (MDMs:bacteria) and treated with 500 μM or 1 mM gallium nitrate. Cell density was assessed over time. The results of the experiments comparing the monolayer integrity of untreated vs. gallium nitrate treated cultures were as follows: […]

[4] = test system: M. tuberculosis strain H37Ra; format: cell-based
[5] = test system: M. avium-intracellulare complex (MAI), ATCC #25291; test: Growth inhibition of MAI (ATCC isolate) in human alveolar macrophages; format: cell-based; details: 500 μM, 24 hr and 48 hr
Protocol: M. avium-intracellulare complex (MAI) was obtained from the ATCC (#25291) and from a patient isolate from the State Hygienic laboratory at the University of Iowa Hospital and Clinics. Human alveolar macrophages were obtained from broncholavage of healthy patients and placed in monolayer culture. The bacteria were added to the cells in a bacteria to macrophage ratio of about 1:1. Growth index readings were obtained at 24 hr and 48 hr after gallium nitrate administration (500 μM) as described in Example 3 and used by Cavalieri, et al. (Antimicrob. Agents and Chemo. 39:1542-1545,1995).

[6] = test system: M. tuberculosis strain Erdman in human macrophages; test: Growth inhibition of M. tuberculosis Erdman in human monocyte derived macrophages (MDM); format: cell-based
Protocol: Monocyte derived macrophages (MDM) containing strain H37Ra were incubated for 24 h (FIG. 2A), 48 h (FIG. 2B) or 72 h (FIG. 2C) and macrophages containing the virulent strain Erdman were incubated for 24 h (FIG. 2D) or 48 h (FIG. 2E) in gallium nitrate.
The gallium-containing compounds can also be tested for their ability to inhibit intracellular pathogens in tissue culture assays. In general, in these assays, the macrophages are placed in culture and incubated with the intracellular pathogen at an approximate cell to pathogen ratio of preferably at least 1:1 to about 1:5 cells:pathogen. Exemplary culture conditions are provided in the assays detailed in the Examples. For assays assessing M. tuberculosis infection, freshly adherent monocytes, 12 day-old adherent MDMs, or freshly adherent alveolar macrophages are incubated with M. tuberculosis, MAI or other intracellular bacteria at a ratio of about 1:1 to about 1:5 (phagocyte:bacterium). For M. tuberculosis or MAI, the bacteria are incubated with the phagocyte for 2 hr at 37° C. in RPMI/HEPES media with 2.5% serum or human serum albumin (serum-free). The cells are washed to remove non-adherent bacteria and monolayers are replated with RPMI containing 1% autologous serum (to maintain phagocyte viability but not to sustain extracellular growth of bacteria). Gallium-containing compounds, such as gallium nitrate, with, or without, other agents such as antibiotics, cytokines etc., are added about 24 hr. later and mycobacterial growth in cell lysates is then assessed over the next several days either by the radiometric BACTEC system or by colony-forming units on agarose plates. In each experiment, growth is assessed relative to control monolayers where no drug has been added.
Mononuclear phagocytes from healthy adult volunteers who were tuberculin skin test negative and had no history of mycobacterial infection were isolated and cultured in Teflon wells according to the methods of Schlesinger, et al. (J. Immunol. 150:2920-2930, 1993). […]

SMILES: O=[N+]([O-])[O-].O=[N+]([O-])[O-].O=[N+]([O-])[O-].[Ga+3] [gallium nitrate]
- binding to serum transferrin on infusion [1]: most of the gallium binds rapidly to serum transferrin
- colony-forming units from macrophage lysates, trend ([2]; between days 2 and 5 following gallium nitrate): continuous decrease in colony-forming units
- killing of M. tuberculosis ([2]; colony forming unit assay, FIG. 5): M. tuberculosis were killed
- colony-forming units relative to initial amount of bacteria in macrophages ([2]; day 5): only slightly below the initial amount of bacteria in macrophages
- monolayer of treated infected macrophages ([2]; during assay, control-infected monolayers were lysed): maintained a very good monolayer
- Monolayer Integrity ([3]; Experiment #2, Day 1, 24 hr postinfection, 500 μM or 1 mM): No difference between Ga-treated and control
- Monolayer Integrity ([3]; Experiment #2, Day 3, 4 days postinfection, 500 μM or 1 mM): No difference between Ga-treated and control
- Monolayer Integrity: times the number of cells in Ga-treated cultures ([3]; Experiment #2, Day 6, 7 days postinfection, 500 μM or 1 mM): 2-4 times
- Monolayer Integrity ([3]; Experiment No. 1, Day 1, 24 h postinfection, 500 μM or 1 mM): No difference
- Monolayer Integrity: more cells in Ga-treated cultures ([3]; Experiment No. 1, Day 8, 9 days postinfection, 500 μM or 1 mM): 25-50%
- Monolayer Integrity: times as many cells in Ga-treated cultures ([3]; Experiment No. 1, Day 11, 12 days postinfection, 500 μM or 1 mM): 4-5 times
- Monolayer Integrity: times as many cells in Ga-treated cultures ([3]; Experiment No. 1, Day 29, 30 days postinfection, 500 μM or 1 mM): 4-5 times
- Monolayer Integrity ([3]; Experiment No. 1, Day 33, 34 days postinfection, control wells had no cells left): No difference between monolayers treated
- concentration with marked inhibition of growth (comparison with gallium transferrin) [4]: 100 µM
- growth inhibition of MAI [5]: inhibits the growth of MAI
- growth inhibition of MAI ([5]; listed as Gallium nitrate): significant inhibition of MAI growth
- inhibition of growth ([6]; 24 h): Inhibition of growth was observed
- inhibition of growth ([6]; about 1 to about 1000 μM): dose-dependent inhibition of growth
- inhibition of growth versus 24 h ([6]; text: 48 and 72 h, FIG. 2 legend: 24 and 48 h for Erdman): More marked inhibition of growth
